Test results: paper PMC6279743, “A small molecule ApoE4-targeted therapeutic candidate that normalizes sirtuin 1 levels and improves cognition in an Alzheimer’s disease mouse model” (Scientific Reports, 2018)
“Also recorded” adds a separate entry of the source. Where two headings read alike, the source gives them in different places.

Tests used:
[1] = Parallel Artificial Membrane Permeability Assay (PAMPA; IAM column); format: in vitro ADME; settings: for retention time (Tr) in PAMPA: IAM.PC.DD2 column, acetonitrile:PBS (pH 5.6) 35:65; for KIAM: KIAM = (Tr-T0)/T0, T0 = 1.24 min; for (KIAM/MW^4) * 10^−(10): MW 255.74 g/mol
Procedure: We used L(+)tartaric acid to isolate the L-enantiomer salt and D(-) tartaric acid to isolate the D-enantiomer salt, followed by neutralization of the salt with NaOH and re-crystallization to obtain the enantiomers. Enantiomer abundance (Supplementary Fig. S4) was determined by HPLC using a Chiralpak IB column. Isopropanol (0.2% diethylamine)/hexanes was used for gradient elution with 5–50% isopropanol (0.2% diethylamine) for 11 min, a Chiralpak IB column, and with sample (1 μL, 1.25 mg/mL) injection, 220 nm wavelength detection, and a flow rate of 1 mL/min. […] The L-alanine analog co-elutes with enantiomer-1 while the D-alanine analog co-elutes with enantiomer-2. Analysis of the enantiomers and A03 in the Parallel Artificial Membrane Permeability Assay (PAMPA) was performed and is described in Supplementary Methods. […]
PAMPA. An IAM.PC.DD2 Regis Technologies analytical (10 cm x 4.6 mm) column wherein phospholipid is bonded on 10 μm, 300 Å, spherical aminopropyl silica and end capped with C10 and C3 amides was used to determine membrane permeability of A03, E1 and E2. An isocratic method was used with a mobile phase comprising acetonitrile:PBS (pH 5.6) equal to 35:65, an injection volume of 5 µL, and a flow rate of 1 mL/min. The parameters determined are Tr = retention time of compound; KIAM= (Tr-T0)/T0; T0= is the delay time of the column, determined by use of 100 µg/mL citric acid) and was T0= 1.24 min; and (KIAM/MW4)*10-(10). The molecular weight of all three compounds was 255.74 g/mol. […]
Supplementary Fig. S1. […] (a) Transient transfection with either
ApoE3 or E4 decreased SirT1 levels as compared to empty vector (Pc/DMSO), but the decrease was greater with […]

[2] = system: SirT1 levels in N2a-E4 cells; assay: SirT1 AlphaLISA in N2a-E4 cells (HTS, secondary and dose-response testing); format: cell-based, murine; settings: for SirT1 increase, racemate vs enantiomers: 5 and 50 μM, n = 3 wells; for Dose-response increase in SirT1 in secondary testing: N2a-E4 cells, 1, 5 and 10 μM; for SirT1 level in HTS: 24 hrs, NIH Clinical Collection screen, A03 5 μM as positive control
Procedure: For HTS we tested a portion of the UCLA compound library (10 plates) including the NIH Clinical Collection library (3 plates). Complete medium (25 µL) was added to each well of 384-well plates, then library compounds were added (250 nL) followed by a suspension of 4 × 10^5 cells/mL murine neuroblastoma N2a cells (25 μL) stably transfected with ApoE4 (N2a-E4). After incubation of the N2a-E4 cells with compounds for 24 hrs at 37 °C and 5% CO2, all but ~6 μL of medium were removed and AlphaLISA Lysis Buffer complemented with HALT protease/phosphatase inhibitor (20 μL, 1X final) was added to each well. To maximize lysis, the plates were frozen at −80 °C. For the AlphaLISA, lysates were thawed and vortexed for 1 min at 3000 rpm.
The AlphaLISA comprises streptavidin donor beads, biotinylated anti-SirT1 N-terminal antibody (19A7AB4), and acceptor beads conjugated to the anti-SirT1 C-terminal antibody (1F3); when the target protein is bound by both antibodies, the beads are in close enough proximity for a transfer of ^1O2 and emission of a detectable signal (Supplementary Fig. S3). For the AlphaLISA, a 384-proxy plate was preloaded with AlphaLISA buffer (2 µL, 1X) with HALT (1X), then cell lysate (2 μL) was transferred to the proxy plate followed by the antibody-mix (2 μL). After incubation at room temperature for 1 hr, the donor bead mixture was added (2 µL) and incubated for an additional 30 min. The plates were then read in an Envision plate reader. All points are one replicate. The standard curve is generated by serial dilution of recombinant SirT1 to assess the linear range of the assay; study samples undergo serial dilution as well. We use A03 as a positive control in the HTS assay. The Z-value, while not ideal, was <1 for the assay (Supplementary Fig. S3).
Compound in medium (50 µL, 2X) was loaded into a 96-well plate, then 4 × 10^4 cells were added to each well; 24 hrs later the medium was removed and cells lysed. Lysate protein concentration was determined using the Bradford assay according to the manufacturer’s instructions. SirT1 was determined in lysates using the SirT1 AlphaLISA as described above.

[3] = Pharmacokinetics after oral delivery in mice; format: in vivo; settings: oral 10 mg/kg; for Tmax / AUC: mouse; for Tmax: brain, n = 1 per time point; for AUC: plasma; for AUC / AUC brain: 1-8 hours
Procedure: All in vivo experiments described were carried out in strict accordance with good animal practice according to NIH recommendations. All procedures for animal use were approved by the Animal Research Committee (ARC) at UCLA and under an approved ARC protocol. Pharmacokinetic (PK) analysis[68]–[70] consisted of oral delivery of compounds (10 mg/Kg) to individual mice followed by euthanasia at 1, 2, 4, 6, and 8 hours post-dose by ketamine/xylazine over-anesthesia, blood collection by cardiac puncture, and transcardial saline perfusion. Whole blood was centrifuged at 5000 rpm for 10 min. in a 5 °C centrifuge to isolate plasma and the plasma stored at −20 °C before analysis. Whole brains were collected, dissected down the midline, snap frozen on dry ice, and stored at −80 °C before analysis. The levels of the compounds in both plasma and brain tissue were determined by a quantitative LC/MS/MS methodology at Integrated Analytical Solutions (IAS, Berkeley, CA). Plasma samples were precipitated with an acetonitrile: methanol (1:1) cocktail containing an internal standard. Brain samples were homogenized directly in ethyl acetate by the liquid-liquid method. The resulting supernatant was evaporated to dryness and subjected to LC/MS/MS analysis. The Tmax, Cmax, brain-to-plasma ratios and brain levels were then calculated using PK Solutions software (SummitPK).

[4] = Brain compound levels 2 hours after the last dose in efficacy studies; format: in vivo, mice; settings: pilot study, SQ 10 mg/kg/day, 28 days, n = 8
Procedure: Mice were euthanized and blood/tissues collected 2 hrs after dosing on day 28 by the method described above for PK. Frontal and parietal cortices (FrCx and PtCx, respectively), as well as the remaining brain tissue, from individual mice were dissected, snap frozen on dry ice, and stored at −80 °C. Plasma samples and the brain tissue minus the FrCx and PtCx (the ‘rest’) from all compound-treated mice were sent to IAS for compound level analysis as described above.
Mice were euthanized and blood/tissues collected 2 hrs after dosing on Day 25 by the method described above for PK. FrCx, PtCx, and hippocampi (Hip) were collected from all mice for SirT1 and sAPPα level determination by AlphaLISA. Protein concentration was determined using a Bradford protein assay. Brain and plasma levels of A03 were determined at IAS.
Mice were euthanized and blood/tissues collected 2 hrs after dosing on Day 56 by the method described above for PK. Hip and FrCx were collected for analysis of SirT1, sAPPα, and Aβ1-42 levels by AlphaLISA. For Aβ1-42 the Perkin Elmer kit AL276C was used. Protein concentrations were determined using the Bradford protein assay. The sAPPα and sAPPβ AlphaLISAs were similar to the SirT1 AlphaLISA (see Supplementary Fig. S3) but the former uses anti-sAPPα antibody AF1168 and 2B3-biotinylated antibodies and the latter an anti-sAPPβ antibody (IBL Cat. #18957) and an anti-N-terminal APP antibody (R&D Systems AF1168) instead of anti-SirT1 antibodies. Brain tissue and plasma were sent to IAS for A03 level analysis.

[5] = Pharmacokinetics after subcutaneous (SQ) injection in mice; format: in vivo; settings: mouse, mice, SQ 10 mg/kg; for Cmax: brain, n = 1, read-out: Cmax in brain
humans = system: humans; design: method as in PMID 22616762; settings: cited from earlier work
[6] = secondary assay, N2a-E4 cells, n = 6 wells

Structure (SMILES)	retention time (Tr) in PAMPA [1]	KIAM [1]	(KIAM/MW^4) * 10^−(10) [1]	SirT1 increase, racemate vs enantiomers ([2]; N2a-E4 cells)	Tmax [3] [h]	AUC [3] [ng·h/mL]	AUC brain [3] [ng·h/g]	Dose-response increase in SirT1 in secondary testing [2]	SirT1 level in HTS ([2]; N2a-E4 cells)	SirT1 increase vs DMSO control at 1 μM [2, 6]	other results
C[C@@H](N)C(=O)OC(C)(C)Cc1ccc(Cl)cc1 [E2]	3.31	1.67	3.90	shows lower potency	1	104	806				
C[C@H](N)C(=O)OC(C)(C)Cc1ccc(Cl)cc1 [E1]	3.3	1.66	3.88	more effective in increasing SirT1 in vitro compared to the optical antipode E2; also recorded: increase SirT1 in N2a-E4 with high significance	1	86	850				Brain levels 2 hours after the last dose, E1 vs A03 [4]: slightly lower; Cmax ([5]; sc): ~5600 ng/g; Cmax ([5]; subcutaneous): ~5800 ng/g; AUC ([5]; plasma, sc): 657 ng·h/mL
CNCCC(Oc1ccc(C(F)(F)F)cc1)c1ccccc1 (centres unmarked) [fluoxetine, reference compound]								neither fluoxetine nor memantine (Fig. 3a) elicited a dose-response increase in SirT1	neither fluoxetine nor memantine enhanced SirT1	only A03 and memantine at 1 μM elicited modest but significant increases	
Cc1nc(-c2cccnc2)sc1C(=O)Nc1ccccc1-c1cn2c(CN3CCOCC3)csc2n1 [SRT2104]											Tolerability after single and multiple oral dosing (humans): well tolerated
CC12CC3CC(C)(C1)CC(N)(C3)C2 [memantine, reference compound]								neither fluoxetine nor memantine (Fig. 3a) elicited a dose-response increase in SirT1	neither fluoxetine nor memantine enhanced SirT1	modest but significant increases	SirT1 increase vs DMSO control at 5 and 10 μM ([2]; secondary assay, N2a-E4 cells, 5 and 10 μM, n = 6 wells): not at 5 or 10 μM
